Data published in patent US8986696B2, “Trans-capsular administration of p38 map kinase inhibitors into orthopedic joints” (DePuy Mitek, Inc., priority 2007, dated 2015).

Assays:
[1] = tested on: IL-1β-stimulated GAG release, bovine chondrocyte pellets / ARC tissues; test: chondrocyte pellet culture model: GAG degradation; format: cell-based; conditions: for GAG Release: Pellet Assay
From the text: (§1) Calf articular cartilage was obtained from the knee joints of eight to twelve month old animals and was processed within twenty-four hours after sacrifice. After removal of muscle and ligament, the cartilage was kept moist using phosphate buffer solution (PBS) to prevent tissue dehydration, and was aseptically peeled off from subchondral bone with a scalpel, and the cartilage pieces were further minced into smaller pieces (˜0.3-0.5×˜0.2-0.5 cm cubes). […] Chondrocytes were then enzymatically isolated from the tissue by incubation for overnight at 37° C. with gentle agitation in 0.2% collagenase in Dulbecco's modified eagle media (DMEM). After removal of tissue debris by filtration through cell strainer and the residual collagenase by 3× wash in PBS, cells were finally resuspended at a density of 2.5×10^6 cells/ml in chondrocyte medium. A 1 ml aliquot of the cell suspension was dispensed into either a 15 ml Falcon centrifuge tube or a 96 deep-well plate and centrifuged at 2000×g for five minutes. The chondrocyte pellets were incubated at 37° C. in a humidified atmosphere of 5% CO2 for two to three weeks with a medium change every other day.
(§2) As an alternative to using calf articular cartilage, a commercial Alginate Recovered Chondrocytes (ARC) system was also used (Articular Engineering, LLC (Northbrook, Ill.)). Use of the commercial system cut down on labor and time in producing chondrocyte pellet. This system produced cartilaginous tissue in vitro using bovine chondrocytes. The first step consisted of culturing chondrocytes in alginate under conditions optimal for the formation of a cell-associated matrix (CM). The second step allowed these cells with their CM, after recovery, to rapidly form and become integrated into a solid mass of cartilage on a porous insert within two weeks. This tissue is rich in cells surrounded by a cell-associated matrix that is degraded rapidly when the cells are exposed to IL-1. ARC tissues in 3 mm punches at delivery were first dispensed into a 96 deep-well plate, one punch per well, for compound treatment. The subsequent procedures were the same as those used for the chondrocyte pellets.
(§3) Chondrocyte pellets were washed once with 1 ml of Chondrocyte Stimulation Medium and equilibrated in the same medium at room temperature for fifteen to thirty minutes. Compounds were dissolved in H2O, Ethanol or dimethyl sulfoxide (DMSO) (10^−2 M) according to suppliers' instructions and further diluted with Chondrocyte Stimulation Medium to the required concentrations. DMSO concentrations in the culture media should not exceed 1%; this concentration of DMSO has no effect on cartilage proteoglycan metabolism in response to cytokines.
[…] At the end of the incubation, media and pellets were harvested and frozen for further analysis. Pellets were also fixed as needed in 4% (w/v) paraformaldehyde in PBS for histology analysis.
Glycosaminoglycan (GAG) levels in the culture media were determined by measuring the amount of polyanionic material reacting with 1,9-dimethylmethylene blue (DME) as detected by absorbance at 525 nm, using shark chondroitin sulfate as a standard. The DME blue dye-binding solution was prepared by dissolving 16 mg of DME blue in a solution containing 0.304% glycine, 0.23% sodium chloride (NaCl), 9.5 mM hydrochloric acid (HCl), pH=3.0 with absorbance at 525 equal to 0.31. Proteoglycans and proteoglycan metabolites in chondrocyte pellet were released by digesting the pellet with 125 μg/ml of papain in 0.1 M PBS, pH 6.0, 5 mM cysteine, 5 mM ethylene-diamine-tetra-acetic acid disodium salt (Na2EDTA) at 50° C. for overnight. Results are reported as either micrograms of GAG per milliliter or percent of total GAG released into culture medium.

[2] = tested on: injured cartilage explants, GAG release; test: drop tower design model: GAG release; format: cell-based, bovine
From the text: (§4) The device comprises a vertical rail that guides a sliding weight from 0.1 kg to 3 kg directly onto a force transducer which is situated at the bottom of the device. A sphere-shaped 2 mm indenter resting on a specimen is located at the bottom of the vertical rail. The indenter is held by a stop screw. The specimen is rigidly attached to a tissue holder underneath the indenter, to avoid side movements, the specimen is rigidly attached to the tissue holder. In this manner, the force transducer transduces a force indirectly onto the specimen. Adjusting the weight of a mass and height from which the mass drops varies the magnitude of the intended impact. For example, a weight mass (e.g., […]) held by a weight holder can be released from a height of e.g., 36 cm and dropped onto the force transducer.
Samples for compound evaluation were tested using either of two different methods to induce inflammatory conditions. One method utilized media conditioned from peripheral blood mononuclear cells (PBMCs) stimulated with LPS (“+LPS”) or non-inflammatory media without LPS (“−LPS”). Another method utilized the absence or presence of a cocktail of cytokines.
In the first method, bovine or human PBMCs were freshly prepared using Ficoll gradient by Lampire Biological Laboratories, Inc. PBMCs in RPMI w/10% FCS at delivery were spun down at 1500 rpm for twenty minutes and the cell pellet was washed twice with 1×PBS to wash off the residual Ficoll. The cells were then resuspended at a density of 1×10^6/ml in RPMI supplemented with 10% FCS, 1× Antibiotics-Antimycotics. The suspension was divided into two aliquots. One aliquot was stimulated with 10 μg/ml of LPS and the other was not stimulated. Both aliquots were then incubated at 37° C., 5% CO2 for twenty-four to seventy-two hours. The conditioned media with or without LPS stimulation are collected, aliquoted, and stored in −80° C. for a maximum of three months. Each conditioned medium was assessed for levels of pro-inflammatory cytokines to ensure their secretion from PBMC. A representative cytokine, IL-6, was assayed by ELISA using a Human IL-6 Quantikine kit and it was shown that the LPS-stimulated medium had at least 10 ng/ml of IL-6, while IL-6 was undetectable in the unstimulated medium.
In the second method, the explants were cultured at 37° C., 5% CO2 either in stimulated or non-stimulated conditioned medium as described above or in defined medium containing DMEM supplemented with 1% FCS, 1× insulin-transferrin-sodium selenite media supplement and Antibiotics-Antimycotics in the presence or absence of a cocktail of cytokines containing 10 ng/ml of IL-1β, 100 ng/ml of TNFα and 5 ng/ml of IFN-γ. The compounds were solubilized in H2O, Ethanol or DMSO (10^−2 M) according to suppliers' instructions and further diluted with either conditioned medium stimulated with or without LPS to the required concentrations. DMSO concentrations in the culture media never exceeded 1%. This concentration of DMSO has no effect on cartilage proteoglycan metabolism in response to cytokines. The injured and noninjured cartilage explants were treated with compound-containing medium for three to five days. The specimens were first treated with compounds at desired concentrations at 37° C. for one hour and then incubated for three to five days in the absence or presence of the cocktail of cytokines. At the end of the incubation, media and cartilage samples were harvested and frozen for further analysis.
Glycosaminoglycan (GAG) levels in the culture media or cartilage were determined by measuring the amount of polyanionic material reacting with 1,9-dimethylmethylene blue (DME) as detected by absorbance at 525 nm, using shark chondroitin sulfate as a standard. The DME blue dye-binding solution was prepared by dissolving 16 mg of DME blue in a solution containing 0.304% glycine, 0.23% NaCl, 9.5 mM HCl, pH=3.0 with A525 equaling 0.31. […]

[3] = tested on: injured cartilage explants; format: cell-based
From the text: as §4

chondrocytes = format: cell-based
From the text: as §1, §2, §3
(§5) The pellets were first treated with compounds at desired concentrations at 37° C. for one hour and then incubated for three to five days in the absence or presence of 10 ng/ml of IL-1β. At the end of the incubation, media and pellets were harvested and frozen for further analysis. Pellets were also fixed as needed in 4% (w/v) paraformaldehyde in PBS for histology analysis.
The LDH activity was determined colorimetrically in an enzymatic test based on the conversion of lactic acid to pyruvate in the presence of chromagenic substrate tetrazolium salt INT that was reduced to formazan.

[4] = tested on: IL-1β-stimulated PGE2 synthesis, bovine chondrocyte pellets / ARC tissues; test: chondrocyte pellet culture model: PGE2; format: cell-based; conditions: for PGE2 Inhibition: Pellet Assay
From the text: as §1, §2, §3, §5
Prostaglandin E2 (PGE2) was measured with a STAT-Prostaglandin E2 EIA ELISA kit (Cayman Biochemicals). This assay is based on the competition between PGE2 from 50 μl samples and a PGE2-alkaline phosphatase conjugate for a limited amount of PGE2 monoclonal antibody in a reaction volume of 150 μl at room temperature for one hour. The antibody-PGE2 complex bound to a goat polyclonal anti-mouse IgG that had been previously attached to the well. After washing to remove any unbound reagents, para-nitrophenyl phosphate (pNPP) was added to the well. The product of this enzymatic reaction absorbs strongly at 412 nm. Because of the large range in response to IL-1β and other cytokines, PGE2 values were converted to log scale prior to doing t-tests.

[5] = tested on: IL-1β-stimulated NO production, bovine chondrocyte pellets / ARC tissues; test: chondrocyte pellet culture model: total nitrite/nitrate (NO); format: cell-based; conditions: Pellet Assay
From the text: as §1, §2, §3, §5
Nitrate/Nitrite levels were measured using the Griess reaction (Green L. C. et al., “Analysis of Nitrate, Nitrite, and [15N]nitrate in Biological Fluids,” Anal. Biochem. 126: 131-138 (1982)) with aNitrate/Nitrite Colorimetric Assay Kit (Cayman Chemicals), the contents of which are incorporated herein by reference. The assay involved a simple two-step process. The first step involved conversion of nitrate in 50 μl of culture medium to nitrite utilizing nitrate reductase in a reaction volume of 100 μl at room temperature for two hours. The second step involved the addition of 50 μl of both Griess Reagent 1 and 2, which converted nitrite into a deep purple azo compound in ten minutes. Photometric measurement of the absorbance at 540 or 550 nm due to this azo chromophore accurately determined nitrite concentration. […]

[6] = tested on: PG release, arthritic joint tissues; conditions: 10^−5 moles/liter or 10^−7 moles/liter; cited from earlier work

With `CN1C(C(=O)Nc2ccccn2)=C(O)c2ccccc2S1(=O)=O` [Piroxicam, reference compound] the “GAG Release” value [1] was “No effect” and the “GAG, inhibition of degradation/release” value ([2]; injured cartilage explants, inflammatory conditions) was “No effect”.

For `CO[C@H]1C[C@@H]2CC[C@@H](C)[C@@](O)(O2)C(=O)C(=O)N2CCCC[C@H]2C(=O)O[C@H]([C@H](C)C[C@@H]2CC[C@@H](O)[C@H](OC)C2)CC(=O)[C@H](C)/C=C(\C)[C@@H](O)[C@@H](OC)C(=O)[C@H](C)C[C@H](C)/C=C/C=C/C=C/1C` [Rapamycin, reference compound], the “cytotoxicity (LDH, words)” value [3] was “little cytotoxicity”, the “cytotoxicity to chondrocytes (LDH, words)” value (chondrocytes) was “little toxicity” and the inhibition at 0.01 µM ([2]; Bos taurus, at 0.01 μM) was 84%.

In the case of `O=C(O)c1cc(O)c2c(c1)C(=O)c1cccc(O)c1C2=O` [Rhein, reference compound], the “cytotoxicity (LDH, words)” value [3] is reported as “tolerant”, the “lowest concentration inhibiting proteoglycan degradation” value ([1]; 10 ng/ml IL-1β, five days) is reported as at most 0.035 µM and the “PGE2 synthesis” value ([4]; diacerein at 5.4 μM, rhein at 0.35 μM, 10 ng/ml IL-1β) is reported as “no effect”.

With `CC(C(=O)O)c1ccc(C(=O)c2ccccc2)s1` (stereo not shown) [Tiaprofenic Acid, reference compound] the “GAG Release” value [1] was “No effect”.

In the case of `Cc1ccc(C(=O)c2ccc(CC(=O)O)n2C)cc1` [Tolmetin, reference compound], the “NO Inhibition” value [5] is reported as “No effect” and the “GAG Release” value [1] is reported as “No effect”.

In the case of `CC1(C)O[C@@H]2[C@@H](CO[C@@]3(COS(N)(=O)=O)OC(C)(C)O[C@@H]23)O1` [Topramax, reference compound], the “NO Inhibition” value [5] is reported as “No effect”, the “GAG Release” value [1] is reported as “No effect” and the “PGE2 Inhibition” value [4] is reported as “No effect”.

For `O=C(O)Cc1ccccc1Nc1c(Cl)cccc1Cl` [diclofenac], the “PG release from arthritic joint tissues” value [6] is listed as “significantly inhibited”.

For `COc1ccc2c(c1)c(CC(=O)O)c(C)n2C(=O)c1ccc(Cl)cc1` [indomethacin], the “PG release from arthritic joint tissues” value [6] is given as “significantly inhibited”.

With Madecassoside the “NO Inhibition” value [5] was “No effect”, the “GAG Release” value [1] was “No effect” and the “PGE2 Inhibition” value [4] was “No effect”.
